Laboratory results from patent US9049814B2, “Coated seeds and methods of making coated seeds” (VamTech, LLC, priority 2007, dated 2015).

What was measured:
[1] = tested on: VAM fungi (4 species VAM fungal cocktail) on corn plants; assay: Percent VAM development on 6-week-old corn plants from coated seed (2006); assay type: in vivo; settings: for % VAM: 6-week-old corn plants, 95 VAM spores, low P; for % VAM, averaged: average across treatments, base VAM level 54% without treatment
Description: Example 1 describes experimental studies carried out, in spring and summer of 2006 to evaluate the effects of different commercial fungicide seed coatings on VAM development in germinated corn seedlings in the presence and absence of alkali formononetinate. All corn seed coatings were done by Sub-Sahara International, Inc. (now owned by Becker Underwood Inc.) using standard coating procedures. The treater used was an RP-14 rotary seed coating machine manufactured by Sedpell in Canada. Successive applications were made with the fungicides being applied first according to the label instructions; then, when the seeds were dry they were over-coated with the alkali (potassium) formononetinate.
Fungicides were applied as a high viscosity, liquid suspension formulations according to the use directions on the respective labels.
The alkali formononetinate was dissolved in water and Polykote added according to the following ratios by weight: water—70 parts; alkali formononetinate—45 parts; Polykote—20 parts.
Seed germination and VAM development tests were carried out in a greenhouse at the Formosa Agricultural and Environmental Research Center, LaWard, Tex.
Percent VAM development was determined, within 3 weeks of treatment, on five, 6-week-old corn plants (from seeding) per treatment planted in sterile potting soil containing 95 spores of a 4 species VAM fungal cocktail at low P concentration. Originally 10 plants per treatment were installed in 30 ml Seedling® cells and after 10 days, 5 were transplanted into 1 liter containers.

[2] = tested on: VAM fungi (Glomus etunicatum, Glomus clarum, Entrophospora columbiana, Glomus intraradices) on corn roots; assay: VAM colonization of corn roots from Myconate over-treated seed (2007); assay type: in vivo, Zea mays L.; settings: for % Root colonization by VAM: Mean (%) / % Root colonization by VAM in 5 replicates: A / % Root colonization by VAM in 5 replicates: B / % Root colonization by VAM in 5 replicates: C / % Root colonization by VAM in 5 replicates: D / % Root colonization by VAM in 5 replicates: E: variety BH, fungicide/insecticide pre-treated seed; for % Root colonization by VAM: Mean (%): mean of 5 replicates; for % Root colonization by VAM in 5 replicates: A: replicate A; for % Root colonization by VAM in 5 replicates: B: replicate B; for % Root colonization by VAM in 5 replicates: C: replicate C; for % Root colonization by VAM in 5 replicates: D: replicate D; for % Root colonization by VAM in 5 replicates: E: replicate E
Protocol: Methods: This study was conducted between February-April 2007 in a greenhouse at the Formosa Agricultural and Environmental Research Center using hybrid corn plants (Zea mays L.) var. Beck's Hybrids 5959 (HB) and Dow/Mycogen 2D675 (PG). The hybrid corn seed was purchased from commercial sources and was pre-treated with one of two fungicidal/insecticidal seed treatments. Variety HB was commercially treated with Beck's “SureGro” containing fludioxonil and mefenoxam fungicides; together with Agriliance Actellic 5E (a.i. pirimiphos-methyl) insecticide, according to label directions. Variety PG was commercially treated with Syngenta “Cruiser Extreme” (a.i. fludioxonil, mefenoxam and azoxystrobin fungicides plus thiamethoxam insecticide) according to label directions.
Subsequently, the corn seed was over-treated with one of two formulations of Myconate. One formulation contained 98% potassium formononetinate (kf) together with Polykote polymer; and the other, 100% acid formononetin (afP) together with Polykote polymer, wetting agent, colorant, and preservative. The kf treatments, 1 through 6 in Table 6, contained varying amounts of potassium formononetinate and were applied using a lab bench apparatus. The afP treatments, 18 and 19, were applied using commercial equipment. Treated HB seed received the kf treatment of potassium formononetinate at rates of 0.2 to 5.6 mg/seed. Treated PG seed received the afP treatment of formononetin at single rate of 0.8 mg/seed. The concentration of formononetin per seed was calculated by gravimetric measurement of the coating applied to the seed.
The controls for the kf treatments involved two seed samples, 7 and 8, both untreated with kf and one of these was also untreated with VAM spores. The control for the afP treatment was treated with afP but was not treated with VAM. The various treatments, including the addition of VAM spores to the growing medium prior to sowing for VAM development studies are described schematically in Table 6.
The colonization rate of VAM fungi on corn roots was determined using methods commonly used to quantify vesicular arbuscular mycorrhiza (Kormanik PP and AC McGraw (1984) Quantification of vesicular-arbuscular mycorrhizae in plant roots. In N. C. Schenck (ed.) Methods and Principles of Mycorrhizal Research. American Phytopathological Society, St. Paul, Minn.; Phillips J M and D S Hayman (1970) Improved procedures for clearing roots and staining parasitic and vesicular-arbuscular mycorrhizal fungi for rapid assessment of infection. Trans. Br. Mycol. Soc. 55:158-160; Read D J, H K Koncheki and J Hodgson (1976) Vesicular-arbuscular mycorrhiza in natural vegetation systems. New Phytol. 77:641-653). Speedling tray cells (30 ml volume) were partially (⅔) filled with autoclaved Miraco-III potting mix and inoculated with 95 spores of VAM cocktail (Lot No. 12-14-04). The VAM cocktail contained spores of Glomus etunicatum, Glomus clarum, Entrophospora columbiana and Glomus intraradices. The cocktail was prepared by mixing dry-sieved (179 microns) spore preparations of G. entunicatum, G. clarum and E. columbiana with dry root pieces containing the intraradical spores of G. intraradices. Each fungal species was individually produced and processed using a pot culture technique. The cells were then filled with Miraco-III mix. After sowing, (one seed per cell, 9-20 seed per treatment), the trays were incubated under continuous light at room temperature. Ten days after sowing, five seedlings from each experimental treatment and 10 from two untreated controls (Treatments 7 and 8) were randomly selected and transplanted to 1-liter cups containing a sand-based medium. The cups were incubated in a greenhouse and a low phosphorus (P) nutrient solution (1.175 ppm) was applied to all treatments 1-2 times per week as needed to maintain proper soil moisture. […]

[3] = tested on: VAM-infected roots of oats; settings: thereby decreasing phosphorus uptake; cited from earlier work
Glomus mosseae = settings: cited from earlier work
[4] = tested on: mycorrhizal colonization of Leucaena leucocephala; settings: in vivo; cited from earlier work

Question: With `COc1ccc(-c2coc3cc([O-])ccc3c2=O)cc1.[K+]` [Myconate kf, potassium formononetinate] as the molecule, how does the “% VAM” value ([1]; 0.5 mg alkali formononetinate/seed over-coated on the named fungicide (or none)) read?
Answer: The value was 61%.

Question: And the “% VAM, averaged” value ([1]; 0.5 mg alkali formononetinate/seed)?
Answer: Its value is 67%.

Question: And the “% VAM” value ([1]; 1.0 mg alkali formononetinate/seed over-coated on the named fungicide (or none))?
Answer: Its value is 66%.

Question: And the “% VAM, averaged” value ([1]; 1.0 mg alkali formononetinate/seed)?
Answer: Its value is 73%.

Question: And the “increase of VAM colonization” value ([2]; 1.6 mg/seed)?
Answer: Its value is “approximately 30%”.

Question: What about the “% Root colonization by VAM: Mean (%)” value ([2]; Treatment 1: 0.2 mg/seed kf) of the same molecule?
Answer: Its value is 41.0%.

Question: And the “% Root colonization by VAM in 5 replicates: A” value ([2]; Treatment 1: 0.2 mg/seed kf)?
Answer: The value was 40%.

Question: What about the “% Root colonization by VAM in 5 replicates: B” value ([2]; Treatment 1: 0.2 mg/seed kf) of the same molecule?
Answer: Its value is 47%.

Question: What about the “% Root colonization by VAM in 5 replicates: C” value ([2]; Treatment 1: 0.2 mg/seed kf) of the same molecule?
Answer: The value was 41%.

Question: And the “% Root colonization by VAM in 5 replicates: D” value (from here on “% Root colonization by VAM … D”) ([2]; Treatment 1: 0.2 mg/seed kf)?
Answer: Its value is 39%.

Question: And the “% Root colonization by VAM in 5 replicates: E” value ([2]; Treatment 1: 0.2 mg/seed kf)?
Answer: Its value is 38%.

Question: And the “% Root colonization by VAM: Mean (%)” value ([2]; Treatment 2: 0.4 mg/seed kf)?
Answer: Its value is 43.6%.

Question: And the “% Root colonization by VAM in 5 replicates: A” value ([2]; Treatment 2: 0.4 mg/seed kf)?
Answer: The value was 44%.

Question: And the “% Root colonization by VAM in 5 replicates: B” value ([2]; Treatment 2: 0.4 mg/seed kf)?
Answer: The value was 48%.

Question: And the “% Root colonization by VAM in 5 replicates: C” value ([2]; Treatment 2: 0.4 mg/seed kf)?
Answer: The value was 45%.

Question: And the “% Root colonization by VAM … D” value ([2]; Treatment 2: 0.4 mg/seed kf)?
Answer: The value was 40%.

Question: And the “% Root colonization by VAM in 5 replicates: E” value ([2]; Treatment 2: 0.4 mg/seed kf)?
Answer: The value was 41%.

Question: And the “% Root colonization by VAM: Mean (%)” value ([2]; Treatment 3: 0.8 mg/seed kf)?
Answer: Its value is 43.8%.

Question: And the “% Root colonization by VAM in 5 replicates: A” value ([2]; Treatment 3: 0.8 mg/seed kf)?
Answer: Its value is 45%.

Question: What about the “% Root colonization by VAM in 5 replicates: B” value ([2]; Treatment 3: 0.8 mg/seed kf) of the same molecule?
Answer: The value was 42%.

Question: What about the “% Root colonization by VAM in 5 replicates: C” value ([2]; Treatment 3: 0.8 mg/seed kf) of the same molecule?
Answer: Its value is 47%.

Question: What about the “% Root colonization by VAM … D” value ([2]; Treatment 3: 0.8 mg/seed kf) of the same molecule?
Answer: The value was 45%.

Question: And the “% Root colonization by VAM in 5 replicates: E” value ([2]; Treatment 3: 0.8 mg/seed kf)?
Answer: The value was 40%.

Question: And the “% Root colonization by VAM: Mean (%)” value ([2]; Treatment 4: 1.6 mg/seed kf)?
Answer: Its value is 32.0%.

Question: What about the “% Root colonization by VAM in 5 replicates: A” value ([2]; Treatment 4: 1.6 mg/seed kf) of the same molecule?
Answer: Its value is 30%.

Question: What about the “% Root colonization by VAM in 5 replicates: B” value ([2]; Treatment 4: 1.6 mg/seed kf) of the same molecule?
Answer: Its value is 39%.

Question: And the “% Root colonization by VAM in 5 replicates: C” value ([2]; Treatment 4: 1.6 mg/seed kf)?
Answer: The value was 28%.

Question: What about the “% Root colonization by VAM … D” value ([2]; Treatment 4: 1.6 mg/seed kf) of the same molecule?
Answer: The value was 35%.

Question: And the “% Root colonization by VAM in 5 replicates: E” value ([2]; Treatment 4: 1.6 mg/seed kf)?
Answer: Its value is 28%.

Question: And the “% Root colonization by VAM: Mean (%)” value ([2]; Treatment 5: 4.0 mg/seed kf)?
Answer: Its value is 25.0%.

Question: And the “% Root colonization by VAM in 5 replicates: A” value ([2]; Treatment 5: 4.0 mg/seed kf)?
Answer: The value was 27%.

Question: What about the “% Root colonization by VAM in 5 replicates: B” value ([2]; Treatment 5: 4.0 mg/seed kf) of the same molecule?
Answer: The value was 21%.

Question: And the “% Root colonization by VAM in 5 replicates: C” value ([2]; Treatment 5: 4.0 mg/seed kf)?
Answer: Its value is 31%.

Question: And the “% Root colonization by VAM … D” value ([2]; Treatment 5: 4.0 mg/seed kf)?
Answer: The value was 24%.

Question: And the “% Root colonization by VAM in 5 replicates: E” value ([2]; Treatment 5: 4.0 mg/seed kf)?
Answer: Its value is 22%.

Question: What about the “% Root colonization by VAM: Mean (%)” value ([2]; Treatment 6: 5.6 mg/seed kf) of the same molecule?
Answer: Its value is 18.2%.

Question: And the “% Root colonization by VAM in 5 replicates: A” value ([2]; Treatment 6: 5.6 mg/seed kf)?
Answer: Its value is 19%.

Question: What about the “% Root colonization by VAM in 5 replicates: B” value ([2]; Treatment 6: 5.6 mg/seed kf) of the same molecule?
Answer: The value was 12%.

Question: What about the “% Root colonization by VAM in 5 replicates: C” value ([2]; Treatment 6: 5.6 mg/seed kf) of the same molecule?
Answer: The value was 25%.

Question: And the “% Root colonization by VAM … D” value ([2]; Treatment 6: 5.6 mg/seed kf)?
Answer: The value was 18%.

Question: And the “% Root colonization by VAM in 5 replicates: E” value ([2]; Treatment 6: 5.6 mg/seed kf)?
Answer: The value was 17%.

Question: What about the “effect on VAM colonization” value ([2]; at or above 4.0 mg/seed) of the same molecule?
Answer: The value was “decreased VAM colonization”.

Question: And the “increase of VAM colonization” value ([2]; commercial use rate (0.8 mg/seed), over the untreated control (24.2% VAM colonization))?
Answer: Its value is 81%.

Question: For `O=[N+]([O-])c1c(Cl)c(Cl)c(Cl)c(Cl)c1Cl` [PCNB, pentachloronitrobenzene], which “VAM-infected root length of oats” value [3] is on record?
Answer: Its value is “decreased”.

Question: Which “Growth of the vesicular arbuscular mycorrhizal fungus Glomus mosseae” value (Glomus mosseae) does the source give for `CCCCNC(=O)n1c(NC(=O)OC)nc2ccccc21` [benomyl] here?
Answer: The value was “affected”.

Question: With `N#Cc1c(Cl)c(Cl)c(Cl)c(C#N)c1Cl` [chlorothalonil] as the molecule, how does the “mycorrhizal colonization, phosphorus concentration, and dry matter yields of Leucaena leucocephala” value [4] read?
Answer: The value was “decrease”.
